Assay [1] has as its system patients. Kind of assay: Experiment 1: levosimendan infusion for 24 hrs in 95 patients, change in mean pulmonary artery pressure. It is filed as in vivo, human. The following applies: infusion 0.05, 0.1, 0.2, 0.4 and 0.6 μg/kg/min for 24 hrs, FIG. 1. On the procedure:
Levosimendan (LS) was administered by infusion (0.05-0.6 μg /kg/min) to totally 95 patients (n=14-23 per group) in amounts of 0.05, 0.1, 0.2, 0.4 and 0.6 μg/kg/min for 24 hrs. The change in the mean pulmonary artery pressure was determined.
------ is placebo, --O-- is vehicle, --[…]-- is dobutamine,
— is LS 0.05 μg/kg/min, —C— is LS 0.1 μg/kg/min, —□— is LS 0.2 μg/kg/min,
—⋄— is LS 0.4 μg/kg/min, —Δ— is LS 0.6 μg/kg/min

For assay [2], the system named is patient with pulmonary hypertension. Kind of assay: Experiment 2: levosimendan infusion for 5.5 hrs in a patient with pulmonary hypertension, mean pulmonary artery pressure. Format: in vivo, human. The protocol:
Levosimendan was administered by infusion (0.1-0.4 μg/kg/min) to a patient with pulmonary hypertension in amounts of 0.1, 0.2 and 0.4 μg/kg/min for 5.5 hrs. At 0.25 h the infusion rate was 0.1 μg/kg/min, at 2.00 h the infusion rate was increased to 0.2 μg/kg/min and at 4.5 h the infusion rate was increased to 0.4 μg/kg/min. The change in the mean pulmonary artery pressure (MPAP) was determined.
Table 1. The change of mean pulmonary artery pressure (NPAP) during levosimendan infusion. 0.25 h infusion rate 0.1 μg/kg/min, 2.00 h infusion rate 0.2 μg/kg/min, 4.5 h infusion rate 0.4 μg/kg/min.

Take `CC1CC(=O)NN=C1c1ccc(NN=C(C#N)C#N)cc1` (single isomer, unassigned; (-)) [levosimendan, (−)-[[4-(1,4,5,6-tetrahydro-4-methyl-6-oxo-3-pyridazinyl)phenyl]hydrazono]propanedinitrile]: in assay [1], the “change in the mean pulmonary artery pressure” value was “able to significantly lower pulmonary artery pressure”. Also, the “change in the mean pulmonary artery pressure (MPAP)” value in assay [2] (infusion 0.1, 0.2 and 0.4 μg/kg/min for 5.5 hrs, one patient with pulmonary hypertension) is reported as “able to significantly lower pulmonary artery pressure”. Further, the MPAP in assay [2] (time 0 h (before the 0.1 μg/kg/min infusion rate at 0.25 h)) stood at 41 mmHg; in assay [2] (time 0.75 h, infusion rate 0.1 μg/kg/min), 42 mmHg; in assay [2] (time 1.25 h, infusion rate 0.1 μg/kg/min) it was 42 mmHg; in assay [2] (time 1.75 h, infusion rate 0.1 μg/kg/min), 39 mmHg; in assay [2] (time 2.50 h, infusion rate 0.2 μg/kg/min), 34 mmHg; in assay [2] (time 3.00 h, infusion rate 0.2 μg/kg/min), 35 mmHg. Besides, the MPAP is 35 mmHg in assay [2] (time 3.50 h, infusion rate 0.2 μg/kg/min); 32 mmHg in assay [2] (time 4.00 h, infusion rate 0.2 μg/kg/min); 27 mmHg in assay [2] (time 5.00 h, infusion rate 0.4 μg/kg/min); 29 mmHg in assay [2] (time 5.50 h, infusion rate 0.4 μg/kg/min).

The values above are taken from US6462045B1, “Method of treating pulmonary hypertension” (Orion Corporation, priority 1998, dated 2002).
